In ChEMBL document CHEMBL1127286, “Quantitative structure-activity relationships study of endothelin-1 analogs” (Bioorg Med Chem Lett, 1994):

Key:
[1] = target: T1, Endothelin receptor type B (Rattus norvegicus) (UniProt P21451); test: Concentration required to produce 50% inhibition of binding against ET B receptor obtained from rat brain membrane
T1 sequence (whole entry): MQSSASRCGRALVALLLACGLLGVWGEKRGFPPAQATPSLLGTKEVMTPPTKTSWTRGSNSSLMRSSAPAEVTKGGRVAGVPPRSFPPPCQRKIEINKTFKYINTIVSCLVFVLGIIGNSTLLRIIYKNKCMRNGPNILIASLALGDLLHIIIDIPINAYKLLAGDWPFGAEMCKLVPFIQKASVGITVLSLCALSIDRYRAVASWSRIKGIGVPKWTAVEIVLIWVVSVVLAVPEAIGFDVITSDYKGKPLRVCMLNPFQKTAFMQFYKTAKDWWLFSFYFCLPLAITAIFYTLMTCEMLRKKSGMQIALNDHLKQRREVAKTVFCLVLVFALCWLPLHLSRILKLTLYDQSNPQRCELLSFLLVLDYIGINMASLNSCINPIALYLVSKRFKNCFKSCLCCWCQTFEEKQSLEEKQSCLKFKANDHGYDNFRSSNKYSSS

[2] = target: T2, Endothelin-1 receptor (Rattus norvegicus) (UniProt P26684); test: Concentration required to produce 50% inhibition of binding against ET A receptor obtained from rat thoracic aortic membrane
T2 sequence (whole entry): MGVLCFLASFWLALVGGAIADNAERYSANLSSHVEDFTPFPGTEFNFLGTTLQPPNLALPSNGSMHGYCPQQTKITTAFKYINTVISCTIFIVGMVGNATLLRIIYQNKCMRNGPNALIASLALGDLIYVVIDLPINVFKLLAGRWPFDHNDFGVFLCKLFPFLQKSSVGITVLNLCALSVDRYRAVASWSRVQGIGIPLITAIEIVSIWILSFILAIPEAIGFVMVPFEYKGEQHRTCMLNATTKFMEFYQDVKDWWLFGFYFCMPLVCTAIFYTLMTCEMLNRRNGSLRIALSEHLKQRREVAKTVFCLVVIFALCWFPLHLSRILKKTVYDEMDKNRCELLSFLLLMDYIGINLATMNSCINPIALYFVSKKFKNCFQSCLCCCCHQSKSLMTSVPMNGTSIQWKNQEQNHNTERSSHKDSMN

pIC50 [1] | pIC50 [2] | Compound
7.55 | 6.13 | CC[C@@H](C)[C@H](NC(=O)[C@H](CC(=O)O)NC(=O)[C@H](CC(C)C)NC(=O)[C@H](Cc1c[nH]cn1)NC(=O)[C@H](CS)NC(=O)[C@H](Cc1ccccc1)NC(=O)[C@H](Cc1ccc(O)cc1)NC(=O)[C@@H](NC(=O)[C@H](CS)NC(=O)[C@H](CCC(=O)O)NC(=O)[C@H](CCCCN)NC(=O)[C@H](CC(=O)O)NC(=O)[C@H](CCSC)NC(=O)[C@H](CC(C)C)NC(=O)[C@H](CO)NC(=O)[C@H](CO)NC(=O)[C@H](CS)NC(=O)[C@H](CO)NC(=O)[C@@H](N)CS)C(C)C)C(=O)N[C@H](Cc1c[nH]cn1)C(=O)N[C@@H](Cc1c[nH]c2ccccc12)C(=O)O
10 | 7.6 | CCC[C@@H](NC(=O)[C@@H](NC(=O)[C@H](CC(=O)O)NC(=O)[C@H](CC(C)C)NC(=O)[C@H](Cc1c[nH]cn1)NC(=O)[C@H](CS)NC(=O)[C@H](Cc1ccccc1)NC(=O)[C@H](Cc1ccc(O)cc1)NC(=O)[C@@H](NC(=O)[C@H](CS)NC(=O)[C@H](CCC(=O)O)NC(=O)[C@H](CCCCN)NC(=O)[C@H](CC(=O)O)NC(=O)[C@H](CCSC)NC(=O)[C@H](CC(C)C)NC(=O)[C@H](CO)NC(=O)[C@H](CO)NC(=O)[C@H](CS)NC(=O)[C@H](CO)NC(=O)[C@@H](N)CS)C(C)C)[C@H](C)CC)C(=O)N[C@@H](Cc1c[nH]c2ccccc12)C(=O)O
9.94 | 7.97 | CC[C@@H](C)[C@H](NC(=O)[C@H](CC(=O)O)NC(=O)[C@H](CC(C)C)NC(=O)[C@H](Cc1c[nH]cn1)NC(=O)[C@H](CS)NC(=O)[C@H](Cc1ccccc1)NC(=O)[C@H](Cc1ccc(O)cc1)NC(=O)[C@@H](NC(=O)[C@H](CS)NC(=O)[C@H](CCC(=O)O)NC(=O)[C@H](CCCCN)NC(=O)[C@H](CC(=O)O)NC(=O)[C@H](CCSC)NC(=O)[C@H](CC(C)C)NC(=O)[C@H](CO)NC(=O)[C@H](CO)NC(=O)[C@H](CS)NC(=O)[C@H](CO)NC(=O)[C@@H](N)CS)C(C)C)C(=O)N[C@H](CC(C)C)C(=O)N[C@@H](Cc1c[nH]c2ccccc12)C(=O)O
9.76 | 8.89 | CC[C@@H](C)[C@H](NC(=O)[C@H](CC(=O)O)NC(=O)[C@H](CC(C)C)NC(=O)[C@H](Cc1c[nH]cn1)NC(=O)[C@H](CS)NC(=O)[C@H](Cc1ccccc1)NC(=O)[C@H](Cc1ccc(O)cc1)NC(=O)[C@@H](NC(=O)[C@H](CS)NC(=O)[C@H](CCC(=O)O)NC(=O)[C@H](CCCCN)NC(=O)[C@H](CC(=O)O)NC(=O)[C@H](CCSC)NC(=O)[C@H](CC(C)C)NC(=O)[C@H](CO)NC(=O)[C@H](CO)NC(=O)[C@H](CS)NC(=O)[C@H](CO)NC(=O)[C@@H](N)CS)C(C)C)C(=O)N[C@H](C(=O)N[C@@H](Cc1c[nH]c2ccccc12)C(=O)O)c1ccccc1
8.6 | 6.85 | CC[C@@H](C)[C@H](NC(=O)[C@H](CC(=O)O)NC(=O)[C@H](CC(C)C)NC(=O)[C@H](Cc1c[nH]cn1)NC(=O)[C@H](CS)NC(=O)[C@H](Cc1ccccc1)NC(=O)[C@H](Cc1ccc(O)cc1)NC(=O)[C@@H](NC(=O)[C@H](CS)NC(=O)[C@H](CCC(=O)O)NC(=O)[C@H](CCCCN)NC(=O)[C@H](CC(=O)O)NC(=O)[C@H](CCSC)NC(=O)[C@H](CC(C)C)NC(=O)[C@H](CO)NC(=O)[C@H](CO)NC(=O)[C@H](CS)NC(=O)[C@H](CO)NC(=O)[C@@H](N)CS)C(C)C)C(=O)N[C@@H](C(=O)N[C@@H](Cc1c[nH]c2ccccc12)C(=O)O)c1ccccc1
– | 9.93 | CC[C@@H](C)[C@H](NC(=O)[C@H](CC(=O)O)NC(=O)[C@H](CC(C)C)NC(=O)[C@H](Cc1c[nH]cn1)NC(=O)[C@H](CS)NC(=O)[C@H](Cc1ccccc1)NC(=O)[C@H](Cc1ccc(O)cc1)NC(=O)[C@@H](NC(=O)[C@H](CS)NC(=O)[C@H](CCC(=O)O)NC(=O)[C@H](CCCCN)NC(=O)[C@H](CC(=O)O)NC(=O)[C@H](CCSC)NC(=O)[C@H](CC(C)C)NC(=O)[C@H](CO)NC(=O)[C@H](CO)NC(=O)[C@H](CS)NC(=O)[C@H](CO)NC(=O)[C@@H](N)CS)C(C)C)C(=O)N[C@H](C(=O)N[C@@H](Cc1c[nH]c2ccccc12)C(=O)O)[C@H](C)CC
10 | 9.88 | CC[C@@H](C)[C@H](NC(=O)[C@H](CC(=O)O)NC(=O)[C@H](CC(C)C)NC(=O)[C@H](Cc1c[nH]cn1)NC(=O)[C@H](CS)NC(=O)[C@H](Cc1ccccc1)NC(=O)[C@H](Cc1ccc(O)cc1)NC(=O)[C@@H](NC(=O)[C@H](CS)NC(=O)[C@H](CCC(=O)O)NC(=O)[C@H](CCCCN)NC(=O)[C@H](CC(=O)O)NC(=O)[C@H](CCSC)NC(=O)[C@H](CC(C)C)NC(=O)[C@H](CO)NC(=O)[C@H](CO)NC(=O)[C@H](CS)NC(=O)[C@H](CO)NC(=O)[C@@H](N)CS)C(C)C)C(=O)N[C@H](C(=O)N[C@@H](Cc1c[nH]c2ccccc12)C(=O)O)C1CCCCC1
9.59 | 7.04 | CC[C@@H](C)[C@H](NC(=O)[C@H](CC(=O)O)NC(=O)[C@H](CC(C)C)NC(=O)[C@H](Cc1c[nH]cn1)NC(=O)[C@H](CS)NC(=O)[C@H](Cc1ccccc1)NC(=O)[C@H](Cc1ccc(O)cc1)NC(=O)[C@@H](NC(=O)[C@H](CS)NC(=O)[C@H](CCC(=O)O)NC(=O)[C@H](CCCCN)NC(=O)[C@H](CC(=O)O)NC(=O)[C@H](CCSC)NC(=O)[C@H](CC(C)C)NC(=O)[C@H](CO)NC(=O)[C@H](CO)NC(=O)[C@H](CS)NC(=O)[C@H](CO)NC(=O)[C@@H](N)CS)C(C)C)C(=O)N[C@@H](C(=O)N[C@@H](Cc1c[nH]c2ccccc12)C(=O)O)C1CCCCC1
7.96 | 5.77 | CC[C@@H](C)[C@H](NC(=O)[C@H](CC(=O)O)NC(=O)[C@H](CC(C)C)NC(=O)[C@H](Cc1c[nH]cn1)NC(=O)[C@H](CS)NC(=O)[C@H](Cc1ccccc1)NC(=O)[C@H](Cc1ccc(O)cc1)NC(=O)[C@@H](NC(=O)[C@H](CS)NC(=O)[C@H](CCC(=O)O)NC(=O)[C@H](CCCCN)NC(=O)[C@H](CC(=O)O)NC(=O)[C@H](CCSC)NC(=O)[C@H](CC(C)C)NC(=O)[C@H](CO)NC(=O)[C@H](CO)NC(=O)[C@H](CS)NC(=O)[C@H](CO)NC(=O)[C@@H](N)CS)C(C)C)C(=O)N[C@H](C)C(=O)N[C@@H](Cc1c[nH]c2ccccc12)C(=O)O
– | 7.59 | CC[C@@H](C)[C@H](NC(=O)[C@H](CC(=O)O)NC(=O)[C@H](CC(C)C)NC(=O)[C@H](Cc1c[nH]cn1)NC(=O)[C@H](CS)NC(=O)[C@H](Cc1ccccc1)NC(=O)[C@H](Cc1ccc(O)cc1)NC(=O)[C@@H](NC(=O)[C@H](CS)NC(=O)[C@H](CCC(=O)O)NC(=O)[C@H](CCCCN)NC(=O)[C@H](CC(=O)O)NC(=O)[C@H](CCSC)NC(=O)[C@H](CC(C)C)NC(=O)[C@H](CO)NC(=O)[C@H](CO)NC(=O)[C@H](CS)NC(=O)[C@H](CO)NC(=O)[C@@H](N)CS)C(C)C)C(=O)N[C@@H](C(=O)N[C@@H](Cc1c[nH]c2ccccc12)C(=O)O)[C@H](C)CC
5.59 | 5.27 | CC[C@@H](C)[C@H](NC(=O)[C@H](CC(=O)O)NC(=O)[C@H](CC(C)C)NC(=O)[C@H](Cc1c[nH]cn1)NC(=O)[C@H](CS)NC(=O)[C@H](Cc1ccccc1)NC(=O)[C@H](Cc1ccc(O)cc1)NC(=O)[C@@H](NC(=O)[C@H](CS)NC(=O)[C@H](CCC(=O)O)NC(=O)[C@H](CCCCN)NC(=O)[C@H](CC(=O)O)NC(=O)[C@H](CCSC)NC(=O)[C@H](CC(C)C)NC(=O)[C@H](CO)NC(=O)[C@H](CO)NC(=O)[C@H](CS)NC(=O)[C@H](CO)NC(=O)[C@@H](N)CS)C(C)C)C(=O)N[C@H](CCC(N)=O)C(=O)N[C@@H](Cc1c[nH]c2ccccc12)C(=O)O
9.78 | 8.06 | CCC(CC)C[C@@H](NC(=O)[C@@H](NC(=O)[C@H](CC(=O)O)NC(=O)[C@H](CC(C)C)NC(=O)[C@H](Cc1c[nH]cn1)NC(=O)[C@H](CS)NC(=O)[C@H](Cc1ccccc1)NC(=O)[C@H](Cc1ccc(O)cc1)NC(=O)[C@@H](NC(=O)[C@H](CS)NC(=O)[C@H](CCC(=O)O)NC(=O)[C@H](CCCCN)NC(=O)[C@H](CC(=O)O)NC(=O)[C@H](CCSC)NC(=O)[C@H](CC(C)C)NC(=O)[C@H](CO)NC(=O)[C@H](CO)NC(=O)[C@H](CS)NC(=O)[C@H](CO)NC(=O)[C@@H](N)CS)C(C)C)[C@H](C)CC)C(=O)N[C@@H](Cc1c[nH]c2ccccc12)C(=O)O
9.77 | 6.71 | CC[C@@H](C)[C@H](NC(=O)[C@H](CC(=O)O)NC(=O)[C@H](CC(C)C)NC(=O)[C@H](Cc1c[nH]cn1)NC(=O)[C@H](CS)NC(=O)[C@H](Cc1ccccc1)NC(=O)[C@H](Cc1ccc(O)cc1)NC(=O)[C@@H](NC(=O)[C@H](CS)NC(=O)[C@H](CCC(=O)O)NC(=O)[C@H](CCCCN)NC(=O)[C@H](CC(=O)O)NC(=O)[C@H](CCSC)NC(=O)[C@H](CC(C)C)NC(=O)[C@H](CO)NC(=O)[C@H](CO)NC(=O)[C@H](CS)NC(=O)[C@H](CO)NC(=O)[C@@H](N)CS)C(C)C)C(=O)N[C@@H](Cc1c[nH]c2ccccc12)C(=O)N[C@@H](Cc1c[nH]c2ccccc12)C(=O)O
